Test results taken from patent US8088402B2, “Bone growth compositions and methods” (Neuropro Technologies, Inc., priority 2002, dated 2012).

Tested on: male Sprague Dawley rats
Test: Manual palpation scoring of spinal fusion strength after decortication in rats
Assay type: in vivo, rat
Protocol: Twelve male Sprague Dawley rats, each weighing approximately 500 grams were selected. Each rat underwent anesthesia with Nembutal (50 mg/kg i.p.). Incision over two regions, the thoracic and lumbar, of the spine in each animal were made. Each incision allowed for the exposure of spinous processes and lamina of at east 2 levels per region. Decortication was carried out at each thoracic and lumbar region using a high-speed drill. Over the decorticated levels, nothing, gelmatrix, gelmatrix plus 8 mg lovastatin or gelmatrix plus 16 mg lovastatin were added. 8 mg I.M. of antibiotic Cefazolin™ was subcutaneously administered to each rat.
For purposes of analysis, the rats were divided into three groups. Group A consisting of rats 1-4 was treated with nothing or gelmatrix. Group B consisting of rats 5-8 was treated with gelmatrix and 8 mg of lovastatin. And, group C consisting of rats 9-12 was treated with gelmatrix and 16 mg of lovastatin. The following is a summary of the data:
After en bloc removal, two observers manually palpated the spine of each rat in a blinded fashion. Palpation was made by flexion and extension at the level of the arthrodesis and at the adjacent levels proximally and distally. […] Each motion segment was graded on a qualitative scale (0-3) based on the strength of the fusion. A solid fusion having no motion was given a score of 3. […] No fusion was scored as a 0. […]

CC[C@H](C)C(=O)O[C@H]1C[C@@H](C)C=C2C=C[C@H](C)[C@H](CC[C@@H]3C[C@@H](O)CC(=O)O3)[C@H]21 [lovastatin]
rats treated with lovastatin that had a stronger fusion at the treated region than rats not treated (gelmatrix plus 8 mg or 16 mg lovastatin over decorticated thoracic or lumbar levels, blinded manual palpation, scale 0-3): seventy five
dose dependence of fusion grades (palpation score 0-3) (gelmatrix plus 8 mg vs 16 mg lovastatin, FIG. 11): dose dependent
